What was measured:
physchem [1] = details: buffer, pH 7.4
physchem [2] = details: buffer, pH 7.4; remark: listed apart in the source
[3] = buffer, pH 7.4
[4] = buffer, pH 7.4; remark: listed apart in the source

| Structure (SMILES) | logD (physchem [1]) | logD (physchem [2]) | logD [3] | logD [4] |
| --- | --- | --- | --- | --- |
| CC(=O)OCC(=O)[C@@]1(O)CC[C@H]2[C@@H]3CCC4=CC(=O)CC[C@]4(C)[C@H]3[C@@H](O)C[C@@]21C [HYDROCORTISONE ACETATE] | 2.21 | 2.11 |  |  |
| CCN(CC)CCNC(=O)c1ccc(N)cc1 [PROCAINAMIDE] | -0.89 | -0.94 |  |  |
| CN/C(=N/CCSCc1nc[nH]c1C)NC#N [CIMETIDINE] | 0.34 | 0.29 |  |  |
| CNC(=C[N+](=O)[O-])NCCSCc1ccc(CN(C)C)o1 [RANITIDINE] | -0.91 | -0.99 |  |  |
| CC(=O)Nc1ccc(O)cc1 [ACETAMINOPHEN] | 0.33 | 0.27 |  |  |
| CN(C)CCC(c1ccc(Cl)cc1)c1ccccn1 (stereo not drawn) [CHLORPHENIRAMINE] |  |  | 0.26 | 0.28 |
| CC(C)N(CC[C@](C(N)=O)(c1ccccc1)c1ccccn1)C(C)C [(S)-DISOPYRAMIDE] | 0.52 | 0.39 |  |  |
| CCN(CC)CCNC(=O)c1cc(S(C)(=O)=O)ccc1OC [TIAPRIDE] | -0.85 | -0.9 |  |  |
| NS(=O)(=O)c1cc(C2(O)NC(=O)c3ccccc32)ccc1Cl (stereo not drawn) [CHLORTHALIDONE] | 0.94 | 0.85 |  |  |

From ChEMBL document CHEMBL1156576, “Determination of log D via automated microfluidic liquid-liquid extraction” (J Med Chem, 2008)
